Patent US20120077732A1, “CYCLIC PEPTIDES AND USES THEREOF” (SYDNEY WEST AREA HEALTH SERVICE, priority 2008, published 2012)
In brackets after ≈: the same amount, converted by molar mass. Like-named read-outs stand apart in the source and are kept apart here.

Assays:
in vitro = type: cell-based
Experimental: (§1) First, to determine if the activity of C1 was due to toxicity, 2B4.11 T-cells (1×10^5) were cultured in microtiter wells in the presence of the peptide conjugates at 50 μM. After 20 hours, 30 μL were removed and cells assessed for viability by trypan blue staining. The remaining culture was then pulsed with 0.5 μCi [^3H] thymidine for 5 h, harvested, and quantitated for [^3H] thymidine uptake to assess cellular proliferation.

2B4.11 T-cells = test: in vitro; type: cell-based; conditions: 50 μM, relative to 0.5% DMSO control; ±SD
Experimental: as §1

2B4.11 cells [1] = test: T-cell activation with 2C11-145 antibody (CD3 crosslinking), IL-2 production; type: cell-based; conditions: CD3 crosslinking with 2C11-145; 50 μM; relative to DMSO control; ±SD
Experimental: To analyse the mode of action of C1, T-cells were activated using 2C11-145 and H57-597 antibodies. The H57-597 antibody is directed against the TCRβ chain, and when administered at sub-optimal doses in conjunction with accessory cells (LK35.2), is capable of activating T cells. […] C1 was added to give a final reaction volume of 250 μL at 50 μM and 0.5% DMSO. […] T cells were also activated using the 2C11-145 antibody to crosslink the CD3 chains of the TCR, thereby bypassing the antigen recognition sub-units of the TCRα/β.

E. coli = test: Standard disk susceptibility testing (NCCLS), E. coli; type: cell-based
Experimental: (§2) The synthetic C1 peptide and its analogues were tested using Standard disk susceptibility testing by National Committee for […] Laboratory Standards (NCCLS) against, S. aureus, E. coli and S. pneumoniae. […]

allergic mice (OVA/OVA) [2] = test: Allergic airways disease (OVA) model: inflammatory cells in BALF; type: in vivo; set-up: key to Airway lymphocytes / Airway eosinophils / Airway macrophages / Airway inflammatory cells / Airway neutrophils: nc: no change; ↑: increase; ↓: decrease
S. pneumoniae = test: Standard disk susceptibility testing (NCCLS), S. pneumoniae; type: cell-based
Experimental: as §2

NOD mice = test: Treatment of NOD mice, blood glucose level / diabetes; type: in vivo; conditions: i.p. injections of 0.1 mg
Experimental: NOD mice were fasted for at least 1.5 h prior to blood glucose level (BGL) measurements. In the morning, all mice were treated with intraperitoneal (i.p.) injections of 0.1 mg C1 and BGLs were taken. Control mice received 0.2 mL of water.

allergic mice (OVA/OVA) [3] = test: Allergic airways disease (OVA) model: local and systemic OVA-specific cytokine production; type: in vivo; set-up: key to Spleen OVA-stimulated IL-5 / Spleen OVA-stimulated IL-13 / LN OVA-stimulated IL-5 / LNOVA stimulated IL-13: nc: no change; ↑: increase; ↓: decrease
[4] = type: physicochemical
Experimental: pH stability was also investigated. C1 (2 μg/μl) was incubated at 30° C. for three days at pH 3, 7 and 10. Samples were taken after each day and analysed by mass spectrometry.

2B4.11 hybridoma = test: Antigen presentation assay (IL-2 produced in response to antigen); type: cell-based; conditions: for IL2 %: 50 μM, relative to DMSO control (100%); for IL-2 production, % of the solvent only control value: 0.5% DMSO, ±SD
[5] = Surface plasmon resonance binding to DMPC liposomes; conditions: SPR
Experimental: Model membranes composed of zwitterionic and anionic phospholipids were prepared as previously described (Bender et al., 2004). Briefly, DMPC and DMPG were dissolved in dry chloroform and chloroform/methanol (2:1) respectively to give 10 mg/ml solutions. […] The solution was sonicated in an ultrasonic bath for 20 min. Eight cycles of freeze/thawing was followed by extrusion through polycarbonate filters, first 100 nm (21 times) then 50 nm pore diameter (21 times), using a Lipofast apparatus (Avestin, Ottawa, Canada) and SUVs were used immediately. SPR was carried out on a BIAcore 2000 instrument using Pioneer Sensor Chip L1 and HEPES (HBS-N, Biacore, Upssala, Sweden) as running buffer. The chip surface was cleaned with 40 mM octyl glycoside (30 μl, 10 μl/min) followed liposomes (SUV) (100 μl, 5 μl/min). 10 mM NaOH (40 μl, 10 μl/min) removed any multilamellar vesicles from the surface before injecting the lipopeptide solutions (100 μl, 5 μl/min). The dissociation stage was 1200 sec. […] All SPR experiments were run at 25° C. and all analyses were performed using the BIAevaluation software (Biacore, Uppsala, Sweden). Lipopeptide binding was expressed as the difference in signal between points before sample injection and after dissociation.

S. aureus = type: cell-based
Experimental: as §2

allergic mice (OVA/OVA) [6] = test: Allergic airways disease (OVA) model: airways hyperreactivity to methacholine; type: in vivo; set-up: key to Airway Resistance / Airway Compliance: nc: no change; ↑: increase; ↓: decrease
2B4.11 cells [7] = type: cell-based; conditions: 50 μM
trypsin = type: in vitro ADME
Experimental: The effect of trypsin on C1 and CP was studied by incubating each peptide (1 μg/μl) in methanol and ammonium bicarbonate (0.1M) with 125 ng/μl of trypsin at pH 8 and 37° C. The effect of trypsin after incubation with CP and C1 was followed by mass spectrometry. […]

2B4 cells = test: T-cell activation with PMA and ionomycin, IL-2 production; conditions: PMA 40 ng/mL + ionomycin 5 μg/mL; 50 μM; ±SD
Experimental: Further, T-cells were activated using PMA and ionomycin stimulation. The method employed to activate T cells utilized the protein kinase C activating PMA in combination with the calcium ionophore, ionomycin. In combination, PMA/ionomycin effectively activate T cells downstream from the TCR. Phorbol 12-myristate 13-acetate (PMA) (40 ng/mL) and ionomycin (5 μg/mL) were added to 2B4 cells (5×10^4) and incubated with each CP-conjugate at 50 μM in 0.5% DMSO in 96-well, round bottom microtiter plates for 24 h at 37° C. with 5% CO2 in a total volume of 250 μL. Supernatants were then collected and analysed for IL-2 production. All CP-conjugates were tested simultaneously in triplicate wells, and each experiment was performed on three separate occasions.

[8] = 200 μg s.c. during challenge, allergic mice
[9] = 200 μg/100 μl s.c. during OVA challenge, compared to OVA/OVA alone

CC(C)C[C@@H]1NC(=O)[C@@H](CC(C)C)NC(=O)[C@H](CCCNC(=N)N)NC(=O)[C@@H](CC(C)C)NC(=O)CNC(=O)[C@@H](C(C)C)NC(=O)[C@H](CCCCN)NC(=O)[C@@H](CC(C)C)NC(=O)[C@H](CC(C)C)NC(=O)[C@@H](CC(C)C)NC1=O [C1, LDRLDLLDLLDKVDG]
viability at 20 h, 50 µM (in vitro): 86.6% | cellular proliferation ([3H] thymidine uptake) (2B4.11 T-cells): 62.56%±14.25 | % IL-2 production (2B4.11 cells [1]): 50.00%+/−15.79 | antimicrobial activity, E. coli (E. coli; peptide 10 μg/ml): −ve | antimicrobial activity, E. coli (E. coli; peptide 100 μg/ml): −ve | antimicrobial activity, E. coli (E. coli; peptide 1000 μg/ml): −ve | eosinophils in BALF (allergic mice (OVA/OVA) [2]; [8]): decrease | total inflammatory cell counts in bronchoalveolar lavage fluid (BALF) (allergic mice (OVA/OVA) [2]; [8]): significantly decreased | Airway eosinophils (allergic mice (OVA/OVA) [2]; [9]): ↓ | Airway inflammatory cells (allergic mice (OVA/OVA) [2]; [9]): ↓ | Airway lymphocytes (allergic mice (OVA/OVA) [2]; [9]): nc | Airway macrophages (allergic mice (OVA/OVA) [2]; [9]): nc | Airway neutrophils (allergic mice (OVA/OVA) [2]; [9]): nc | antimicrobial activity, S. pneumoniae (S. pneumoniae; peptide 10 μg/ml): −ve | antimicrobial activity, S. pneumoniae (S. pneumoniae; peptide 100 μg/ml): −ve | antimicrobial activity, S. pneumoniae (S. pneumoniae; peptide 1000 μg/ml): −ve | blood glucose level control versus control group (NOD mice): more tightly controlled | mice that developed diabetes (BGL higher than 15 mM on two consecutive days) (NOD mice; preliminary results, control 7/21): 2/7 | locally produced (peribronchial lymph node derived) IL-5 (allergic mice (OVA/OVA) [3]; [8]): significant decrease | locally produced (peribronchial lymph node derived) IL-13 (allergic mice (OVA/OVA) [3]; [8]): significant decrease | systemic (spleen derived) IL-5 (allergic mice (OVA/OVA) [3]; [8]): significant decrease | systemic (spleen derived) IL-13 (allergic mice (OVA/OVA) [3]; [8]): significant decrease | LN OVA-stimulated IL-5 (allergic mice (OVA/OVA) [3]; [9]): ↓ | LNOVA stimulated IL-13 (allergic mice (OVA/OVA) [3]; [9]): ↓ | Spleen OVA-stimulated IL-5 (allergic mice (OVA/OVA) [3]; [9]): ↓ | Spleen OVA-stimulated IL-13 (allergic mice (OVA/OVA) [3]; [9]): ↓ | pH range over which stable [4]: 1-11 pH | % Ave IL2 Production (2B4.11 hybridoma; average, Tables 1-3): 17% | IL2 % (2B4.11 hybridoma; fifth IL2 column (individual experiment in triplicate)): 15.6% | IL2 % (2B4.11 hybridoma; fourth IL2 column (individual experiment in triplicate)): 18.9% | IL-2 production, % of the solvent only control value (2B4.11 hybridoma; peptide 25 μM): 59.69%±23.54 | IL-2 production, % of the solvent only control value (2B4.11 hybridoma; peptide 50 μM): 7.73%±4.97 | binding affinity to DMPC model membrane relative to CP [5]: approximately 10 fold | binding to DMPC (zwitterionic) liposomes ([5]; L1 sensor chip, 50 μM, 25° C.): bound much stronger | binding relative to all the other analogues examined (with the exception of C2) ([5]; model membranes): > 10 fold | MIC against S. aureus (S. aureus): 100 µg/mL (≈ 89.3 µM) | antimicrobial activity, S. aureus (S. aureus; peptide 10 μg/ml): −ve | antimicrobial activity, S. aureus (S. aureus; peptide 100 μg/ml): +ve | antimicrobial activity, S. aureus (S. aureus; peptide 1000 μg/ml): +ve | airway resistance in response to methacholine challenge (allergic mice (OVA/OVA) [6]; [8]): no significant effect | dynamic compliance in response to methacholine challenge (allergic mice (OVA/OVA) [6]; [8]): no significant effect | Airway Compliance (allergic mice (OVA/OVA) [6]; [9]): ↑ | Airway Resistance (allergic mice (OVA/OVA) [6]; [9]): nc | IL-2 production (2B4.11 cells [7]): 71.42%+/−14.275D | stability without trypsin, 3 hours (Mass spectroscopy-MS) (trypsin): No degradation product | stability without trypsin, 24 hours (MS) (trypsin): No degradation product | IL-2 production relative to the DMSO control (2B4 cells): 62.83%+/−17.60
